One assay deals with T1, human ATTR amyloid (Homo sapiens, UniProt P02766).
T1 construct: human ATTR-laden formalin-fixed paraffin embedded tissue sections; from tissue
Description: Pre-targeting immunohistochemistry on ATTR-laden tissue sections. Type of assay: binding. The following applies: biotinylated peptide without mAb; compared with Congo red. The procedure:
The pre-targeting efficacy of peptide p5+14 in conjunction with mAb clones 4, 5, 12, or 13 was further evaluated using human ATTR-laden formalin-fixed paraffin embedded tissue sections. More particularly, six micrometer-thick sections, cut from formalin-fixed, paraffin embedded human transthyretin (TTR) amyloid-laden tissue, were subjected to antigen retrieval by incubation with CitraPlus (BioGenex, San Ramon, Calif.) for 30 min at 90° C. Peptide p5+14 was added to the tissue at ˜3 μg/mL (30× molar excess over mAb) and incubated overnight at 4° C. Unbound reagent was removed by washing in PBST for 30 min. Tissues (with or without p5+14) were immunostained with a 3 μg/mL solution of biotinylated anti-peptide mAb (clones 4, 5, 12, or 13). Slides were developed by addition of streptavidin-HRP (Vectastain Elite ABC kit, Vector Labs) followed by 3,3′-diaminobezidene (Vector Labs).
By way of positive control, a biotinylated-p5+14 peptide (without mAb) was used to directly stain TTR amyloid in this tissue (red arrows, below), as described above.
To confirm the presence and distribution of amyloid in the tissue a consecutive slide was stained with Congo red. Briefly, tissues were incubated in Congo red solution (0.8% w/v Congo red, 0.2% KOH w/v in 80% ethanol) for 1 h at RT. Sections were then washed in water and counterstained by suspending in Mayer's hematoxylin for 2 min. […]

The test system of another assay is liver macrophages. Description: Liver macrophage staining (Iba-1) after in vivo pre-targeting. The following applies: AA mice pre-injected with the peptide, 72 h post injection of 11-1F4 mAb. The procedure:
(§1) Systemic visceral AA amyloidosis was induced in H2-L^d-huIL-6 Tg Balb/c transgenic mice that constitutively express the human interleukin-6 transgene, by iv injection of 10 μg of purified, splenic AA amyloid (amyloid enhancing factor; AEF) in 100 μL of sterile phosphate-buffered saline (PBS). Peptide p66 pre-targeting of ^125I-11-1F4 was evaluated in mice at 3-4 wk post AEF injection when amyloid load was modest.
(§2) Three cohorts of 3 mice, each received ˜400 μg of unlabeled peptide p66, and a second group of 3 cohorts were given peptide p5+14 as a control. Twenty-four hours after the peptide injection all mice were administered ˜150 μCi (˜20 μg) of ^125I-11-1F4 IV in the lateral tail vein. One group of p66 mice (n=3) and one group of p5+14 control mice (n=3) were euthanized at 24, 48 and 72 h post injection of 11-1F4 mAb and the organs harvested at necropsy for fixation, followed by microautoradiographic and immunohistochemical analyses.
The presence of macrophages was detected by staining with mAb Iba-1 (1:8000 diln) followed by addition of biotinylated rabbit anti-mouse secondary reagent (Vector Rabbit Elite kit). The slides were developed, as described above. All tissue sections were examined using a Leica DM500 light microscope fitted with cross-polarizing filters (for Congo red). Digital microscopic images were acquired using a cooled CCD camera (SPOT; Diagnostic Instruments).

Another assay deals with AA amyloid. Description: In vivo pre-targeting of 125I-11-1F4 to systemic AA amyloid. The following applies: AA mice, ~400 μg unlabeled peptide, 24 h post injection of 11-1F4. The procedure:
as §1, §2
For autoradiography, 6-μm-thick sections were cut from formalin-fixed, paraffin-embedded blocks, containing tissues from mice that had received ^125I-p66. The sections were placed on Plus microscope slides (Fisher Scientific), dipped in NTB-2 emulsion (Eastman Kodak), stored in the dark, and developed after a 4 day exposure. Each section was counterstained with hematoxylin and eosin. […]

Assay [1] deals with synthetic and naturally-occurring amyloid samples. Description: 125I-peptide pull-down assay. The assay is classed as binding. The procedure: To evaluate the binding of p66 and p5+14 to synthetic and naturally-occurring amyloid, peptides p66 or p5+14 were radiolabeled with iodine-125 (I-125, ^125I) using oxidation with chloramine T (1 mg/ml in water freshly made. Free 1-125 was removed from the reaction mixture by size exclusion chromatography using a Sephadex G-25 solid phase and a 0.1% (w/v) gelatin in PBS mobile phase. Fractions of ˜250 μl were collected and the radioactivity in each measured using a gamma counter (Packard Cobra II auto-gamma counter). Peptide fractions with peak radioactivity were pooled and used for the “pull-down” assays.
For the pull down assay, ^125I-labeled peptide binding to murine: (m) AA and wild type (WT) liver homogenates (25 μl); rVλ6Wil (AL), Aβ(1-40) and islet amyloid polypeptide (IAPP) synthetic fibrils (25 μg), and; transthyretin-associated (ATTR), ALκ4-Cab and ALλ1-Ship human amyloid extracts (50 μg). The ^125I-peptides were prepared in PBST (0.15 M NaCl) or PBST with 1 M NaCl. Ten μl (˜5 ng, ˜100,000 counts per min [cpm]) of the ^125I-peptide solution was added to each test sample in a 200 μl volume. The reaction mixtures were rotated for 1 h at RT, then centrifuged twice at 16,000× g for 10 min. After each step the supernatants were removed and collected in test tubes. The pellets, obtained following the second spin were resuspended in PBST. The radioactivity in both the supernatant and pellet samples were measured using a Packard Cobra II auto-gamma counter. The bound peptide, expressed as % total was calculated according to: Bound peptide(% total)=(Pellet cpm)/(Pellet cpm+Supernatant cpm)

The subject of the next assay is mAb clones. Description: Capture of biotinylated negative control peptides by adsorbed mAbs. The assay is classed as binding, murine. The following applies: 100 ng/well. The procedure:
More particularly, 96-well ELISA microplates were coated overnight with the indicated mAbs (500 ng/well), the wells were blocked with PBS/BSA solution before addition of biotinylated p5+14 peptide (100 ng/well). Biotinylated peptides, p5R and p31G (aka p5G) were used as a negative control. Following a wash step, detection of captured peptide was achieved by addition of europium-conjugated streptavidin as described above.

Assay [2] in a line: In vivo binding of 125I-p66 in healthy WT mice. The following applies: 125I-labelled peptide iv. On the procedure:
(§3) Imaging was performed using WT or AA amyloid mice (n=3) that were injected with ˜5 μg of ^125I-p66, 125 μCi in the lateral tail vein. After the appropriate uptake time (data for 4 and 72 h pi shown), mice were euthanized by isoflurane inhalation overdose. SPECT images were acquired using an Inveon trimodality imaging platform (Siemens Preclinical Solution, Knoxville, Tenn.) running Inveon Acquisition Workplace software (ver. 2.0). Low energy (^125I; 25-45 keV) gamma photons were acquired at each of 60, 16-sec projections with 90 mm of bed travel. A 1 mm-diameter, 5-pinhole (Mouse Whole Body) collimator was used at 30 mm from the center of the field of view. Data were reconstructed post hoc onto an 88×88×312 matrix with isotropic 0.50 mm voxels using a 3D ordered subset expectation maximization (OSEM) algorithm (8 iterations; 6 subsets).
Samples of liver, spleen, pancreas, kidneys, small and large intestines, stomach and heart were harvested post mortem from every mouse undergoing imaging with ^125I-p66. A sample of each was placed into a tared, plastic vial, weighed and the ^125I radioactivity measured using an automated Wizard 3 gamma counter (1480 Wallac Gamma Counter, Perkin Elmer). The biodistribution data were expressed as % injected dose/g tissue (% ID/g). In addition, samples of each tissue were fixed in 10% buffered-formalin for 24 h and embedded in paraffin for autoradiography. […]

A further assay has as its target BSA-blocked wells (Bos taurus, UniProt P02769). Description: p66 and 11-1F4 on BSA-blocked wells without fibrils. Type of assay: binding. The following applies: no fibrils.
Another assay concerns AA amyloid deposits. Description: In vivo binding of 125I-p66 in mice with systemic AA amyloidosis. The procedure: Systemic visceral AA amyloidosis was induced in H2-L^d-huIL-6 Tg Balb/c transgenic mice that constitutively express the human interleukin-6 transgene, by iv injection of 10 μg of purified, splenic AA amyloid (amyloid enhancing factor; AEF) in 100 μL of sterile phosphate-buffered saline (PBS). Peptide p66 was evaluated in mice at 4-6 wk post AEF injection when amyloid load was significant.
as §3
CT data were acquired using an x-ray voltage biased to 80 kVp with a […] anode current, with 4×4 binning. A 225 msec exposure was used, and 360, 1-degree projections were collected. The data were reconstructed using an implementation of the Feldkamp filtered back-projection algorithm onto a 512×512×1296 matrix with isotropic 0.106 mm voxels. […]
Samples of liver, spleen, pancreas, kidneys, small and large intestines, stomach and heart were harvested post mortem from every mouse undergoing imaging with ^125I-p66. A sample of each was placed into a tared, plastic vial, weighed and the ^125I radioactivity measured using an automated Wizard 3 gamma counter (1480 Wallac Gamma Counter, Perkin Elmer). The biodistribution data were expressed as % injected dose/g tissue (% ID/g). […]

Chain of BSA-blocked wells (P02769 25-607): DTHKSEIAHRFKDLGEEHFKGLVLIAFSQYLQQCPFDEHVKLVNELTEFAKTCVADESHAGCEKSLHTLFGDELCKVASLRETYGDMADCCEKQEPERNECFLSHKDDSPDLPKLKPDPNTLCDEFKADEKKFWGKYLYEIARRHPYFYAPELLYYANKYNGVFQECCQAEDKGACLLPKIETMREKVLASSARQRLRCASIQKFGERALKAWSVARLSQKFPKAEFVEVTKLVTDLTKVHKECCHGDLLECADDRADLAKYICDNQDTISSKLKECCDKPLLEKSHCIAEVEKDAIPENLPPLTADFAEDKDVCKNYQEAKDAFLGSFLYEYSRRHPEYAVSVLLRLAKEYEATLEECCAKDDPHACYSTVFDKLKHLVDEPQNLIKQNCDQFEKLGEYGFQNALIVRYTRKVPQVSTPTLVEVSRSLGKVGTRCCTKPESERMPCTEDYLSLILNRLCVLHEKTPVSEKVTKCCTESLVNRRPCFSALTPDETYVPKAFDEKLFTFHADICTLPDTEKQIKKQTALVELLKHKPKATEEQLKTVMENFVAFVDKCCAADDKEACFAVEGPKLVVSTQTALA

Take “p5+14: SEQ ID NO: 17: KAQKAQAKQAKQAQKAQKAQAKQAKQAQKAQKAQAKQAKQ (KAQKAQAKQAKQAQKAQKAQAKQAKQAQKAQKAQAKQAKQ; Peptide p5+14)”: the “Direct staining of ATTR amyloid by biotinylated peptide” value in the assay with human ATTR amyloid was “co-localizes with amyloid deposits”. Further, the “Liver macrophage infiltration (Iba-1 staining)” value with liver macrophages is “induced macrophage infiltration”. Further, the “Peptide associated with AA amyloid in tissues (immunohistochemistry with clone 12-3)” value with AA amyloid was “p5+14-coated AA amyloid in all tissues evaluated”. Also, the “Binding of 125I-peptide to amyloid samples (pull-down)” value in assay [1] (0.15 M NaCl) and in assay [1] (1.0 M NaCl) was “bound equally well” throughout.
As to “p5G: SEQ ID NO: 3: GAQGAQAGQAGQAQGAQGAQAGQAGQ (GAQGAQAGQAGQAQGAQGAQAGQAGQ; Peptide p5G)”, the “Capture of biotinylated peptide by adsorbed mAb clones” value in the assay on mAb clones is listed as “not captured”.
On to “p5R: SEQ ID NO: 2: RAQRAQARQARQAQRAQRAQARQARQ (RAQRAQARQARQAQRAQRAQARQARQ; Peptide p5R)”, for which the “Capture of biotinylated peptide by adsorbed mAb clones” value in the assay with mAb clones is reported as “not captured”.
Consider “p66: SEQ ID NO: 18: p5+14 fused via linker SVTVVT to 11-1F4 12-mer epitope KHYAAFPENLLI (KAQKAQAKQAKQAQKAQKAQAKQAKQAQKAQKAQAKQAKQSVTVVTKHYAAFPENLLI; Fusion protein between p66 and antibody epitope sequence 11-1F4)”, for which the “Binding to healthy tissues in vivo (micro-autoradiography)” value in assay [2] is listed as “did not bind to any tissue”. In addition, the “Peptide binding to BSA-blocked wells in the absence of fibrils” value with BSA-blocked wells is recorded as “no peptide bound”. In the assay on liver macrophages, the “Liver macrophage infiltration (Iba-1 staining)” value was “induced macrophage infiltration into the liver and clustering of macrophages around amyloid deposits to a greater degree”. Besides, the “Binding to amyloid deposits in vivo (micro-autoradiography vs Congo red)” value with AA amyloid deposits (125I-labelled peptide iv, mice with systemic AA amyloidosis) is “specifically bound the amyloid deposits”. In the assay with AA amyloid deposits (125I-labelled peptide, AA mice), the “Reactivity with amyloid in vivo, notably liver, spleen, pancreas and intestines (SPECT/CT imaging and tissue biodistribution)” value is listed as “confirmed”. Also, the “Time post injection at which liver amyloid could be visualized by SPECT imaging” value in the assay on AA amyloid deposits (125I-labelled peptide, AA mice) is “at least 72 h”. Moreover, the “Peptide associated with AA amyloid in tissues (immunohistochemistry with clone 12-3)” value in the assay on AA amyloid was “associated specifically with AA amyloid”. In addition, the “Binding of 125I-peptide to amyloid samples (pull-down)” value in assay [1] (0.15 M NaCl) and in assay [1] (1.0 M NaCl) was “bound equally well” in each case.
